Laboratory results published in patent US20070213394A1 (priority 2004, published 2007).
Like-named read-outs stand apart in the source and are kept apart here.

Experiments:
[1] = biological target: T1, human kappa opioid receptor (Homo sapiens, UniProt P41145); experiment: biochemical; details: for Emax: 1 h, read-out: Efficacy
T1 construct: expressed in transfected cells; host or cells: Chinese hamster ovary cells (CHO-hKOR), membranes

[2] = biological target: T1, human kappa opioid receptor; experiment: biochemical; assay type: binding
rats [3] = experiment: Forced swim test (FST); assay type: in vivo, rat; details: FIG. 3A
rats [4] = experiment: Intracranial self-stimulation (ICSS), lateral hypothalamic brain stimulation; assay type: in vivo, rat; details: 1.0 mg/kg, IP, 1-hour test sessions, FIG. 4
rats [5] = experiment: Locomotor activity test; assay type: in vivo, rat; details: FIG. 3B

T1 sequence (P41145 whole entry): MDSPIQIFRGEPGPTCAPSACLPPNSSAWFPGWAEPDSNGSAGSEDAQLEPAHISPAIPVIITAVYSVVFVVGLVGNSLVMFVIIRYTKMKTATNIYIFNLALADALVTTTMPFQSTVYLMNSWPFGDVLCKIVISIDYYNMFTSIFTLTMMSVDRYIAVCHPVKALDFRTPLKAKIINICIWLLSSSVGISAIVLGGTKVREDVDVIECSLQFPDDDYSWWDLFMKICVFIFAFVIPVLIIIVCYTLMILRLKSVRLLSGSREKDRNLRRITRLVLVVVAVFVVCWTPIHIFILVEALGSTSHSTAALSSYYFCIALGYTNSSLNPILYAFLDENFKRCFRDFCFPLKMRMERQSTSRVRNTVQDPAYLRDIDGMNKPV

## COC(=O)[C@@H]1C[C@H](OC(=O)CNC(=O)OCC2c3ccccc3-c3ccccc32)C(=O)C2[C@@]1(C)CC[C@H]1C(=O)O[C@H](c3ccoc3)C[C@]21C (some centres unmarked) [Compound 21]
[1]
  EC50: > 4120 nM
[2]
  Ki: > 277 nM

## COC(=O)O[C@H]1C[C@@H](C(=O)OC)[C@]2(C)CC[C@H]3C(=O)O[C@H](c4ccoc4)C[C@]3(C)C2C1=O (some centres unmarked) [Compound 29]
[1]
  EC50: > 1720 nM
[2]
  Ki: > 91 nM

## CCOC(=O)O[C@H]1C[C@@H](C(=O)OC)[C@]2(C)CC[C@H]3C(=O)O[C@H](c4ccoc4)C[C@]3(C)C2C1=O (some centres unmarked) [Compound 30]
[1]
  EC50: > 1120 nM
[2]
  Ki: > 78.9 nM

## CC(=O)O[C@H]1C[C@@H](C(=O)O)[C@]2(C)CC[C@@H]3C(=O)O[C@H](c4ccoc4)C[C@]3(C)C2C1=O (stereo partly drawn) [Compound 31, epi-demethyl Salvinorin]
[1]
  EC50: 84 nM
  Emax: 93 ± 5%
[2]
  Ki: 17.3 nM

## CC(=O)O[C@H]1C[C@@H](C(=O)O)[C@]2(C)CC[C@H]3C(=O)O[C@H](c4ccoc4)C[C@]3(C)C2C1=O (some centres unmarked) [Compound 32, demethyl Salvinorin]
[1]
  EC50: > 1230 nM
[2]
  Ki: > 115 nM

## CCOC(=O)C1CC(OC(C)=O)C(=O)C2C1(C)CCC1C(=O)OC(c3ccoc3)CC12C (centres unmarked) [Compound 34]
[1]
  EC50: 94.4 ± 4.1 nM
  Emax: 110 ± 6.4%
[2]
  Ki: 365 ± 26 nM

## C#CCCCCOC(=O)C1CC(OC(C)=O)C(=O)C2C1(C)CCC1C(=O)OC(c3ccoc3)CC12C (centres unmarked) [Compound 51]
[1]
  EC50: 224 ± 4 nM
  Emax: 104 ± 16.5%
[2]
  Ki: 679 ± 112 nM

## COC(=O)[C@@H]1C[C@H](OC(C)=O)C(=O)C2[C@@]1(C)CC[C@H]1C(=O)OC(C3CCOC3)C[C@]21C (some centres unmarked) [Compound 62]
[1]
  EC50: 68.3 nM
  Emax: 117 ± 4.7%
[2]
  Ki: 19.3 nM

## COC(=O)C1=CC(=O)C=C2[C@@]1(C)CC[C@H]1C(=O)O[C@H](c3ccoc3)C[C@]21C [Compound 70]
[1]
  EC50: > 5150 nM
[2]
  Ki: > 616 nM

## COC(=O)[C@@H]1C[C@@H](NC(C)C)C(=O)C2[C@@]1(C)CC[C@H]1C(=O)O[C@H](c3ccoc3)C[C@]21C (stereo partly drawn) [Compound 75, 2-epi-(N-isopropyl)-salvinorin]
[1]
  EC50: 7.2 ± 0.3 nM
[2]
  Ki: 2.3 ± 0.6 nM

## COC(=O)[C@@H]1C[C@H](NC(=O)NC(=O)C(Cl)(Cl)Cl)C(=O)C2[C@@]1(C)CC[C@H]1C(=O)O[C@H](c3ccoc3)C[C@]21C (some centres unmarked) [Compound 79]
[1]
  EC50: 471 ± 110 nM
  Emax: 103%
[2]
  Ki: 227 ± 32 nM

## CCC(=O)N(C)[C@@H]1C[C@@H](C(=O)OC)[C@]2(C)CC[C@H]3C(=O)O[C@H](c4ccoc4)C[C@]3(C)C2C1=O (stereo partly drawn) [Compound 81, 2-epi-(N-methylpropionamide)-salvinorin]
[1]
  EC50: 12.6 ± 0.9 nM
[2]
  Ki: 6.9 ± 1.1 nM

## COC(=O)[C@@H]1C[C@H](OC(=O)Nc2ccccc2)C(=O)C2[C@@]1(C)CC[C@H]1C(=O)O[C@H](c3ccoc3)C[C@]21C (some centres unmarked) [Compound 86]
[1]
  EC50: 197 ± 39 nM
  Emax: 93%
[2]
  Ki: 282 ± 13 nM

## COC(=O)[C@@H]1C[C@H](OC(=O)[C@H](C)NC(C)=O)C(=O)C2[C@@]1(C)CC[C@H]1C(=O)O[C@H](c3ccoc3)C[C@]21C (some centres unmarked) [Compound 91]
[1]
  EC50: 219 ± 25 nM
  Emax: 93%
[2]
  Ki: 176 ± 5.5 nM

## COC(=O)[C@@H]1C[C@H](OC(=O)[C@H](C)N(C)C)C(=O)C2[C@@]1(C)CC[C@H]1C(=O)O[C@H](c3ccoc3)C[C@]21C (some centres unmarked) [Compound 92]
[1]
  EC50: 539 ± 11 nM
  Emax: 90%
[2]
  Ki: 197 ± 19 nM

## CC(=O)OC1CC(C(=O)NC(C)C(=O)OCc2ccccc2)C2(C)CCC3C(=O)OC(c4ccoc4)CC3(C)C2C1=O (centres unmarked) [Compound 98]
[1]
  EC50: 46.7 ± 7.3 nM
  Emax: 95%
[2]
  Ki: 14.2 ± 0.8 nM

## CC(=O)OC1CC(C(=O)NCC(=O)OCc2ccccc2)C2(C)CCC3C(=O)OC(c4ccoc4)CC3(C)C2C1=O (centres unmarked) [Compound 100]
[1]
  EC50: 227 ± 15 nM
  Emax: 105%
[2]
  Ki: 470 ± 92 nM

## CC(=O)OC1CC(C(=O)N2CCCC2C(=O)OCc2ccccc2)C2(C)CCC3C(=O)OC(c4ccoc4)CC3(C)C2C1=O (centres unmarked) [Compound 103]
[1]
  EC50: 348 ± 26 nM
  Emax: 100%
[2]
  Ki: 210 ± 32 nM

## COC(=O)[C@@H]1C[C@@H](N)C(=O)C2[C@@]1(C)CC[C@H]1C(=O)O[C@H](c3ccoc3)C[C@]21C (stereo partly drawn) [Compound 207b, 2-epi-aminosalvinorin]
[1]
  EC50: 1370 ± 155 nM
  Emax: 84%
[2]
  Ki: 223 ± 123 nM

## CNC1CC(C(=O)OC)C2(C)CCC3C(=O)OC(c4ccoc4)CC3(C)C2C1=O (centres unmarked) [Compound 208a, 2-(N-methyl)-salvinorin]
[1]
  EC50: 825 ± 93 nM
  Emax: 82%
[2]
  Ki: 328 ± 40 nM

## CCNC1CC(C(=O)OC)C2(C)CCC3C(=O)OC(c4ccoc4)CC3(C)C2C1=O (centres unmarked) [Compound 209a, 2-(N-ethyl)-salvinorin]
[1]
  EC50: 72.8 ± 4 nM
[2]
  Ki: 65 ± 24 nM

## COC(=O)C1CC(NC(C)C)C(=O)C2C1(C)CCC1C(=O)OC(c3ccoc3)CC12C (centres unmarked) [Compound 210a, 2-(N-isopropyl)-salvinorin]
[1]
  EC50: 18.9 ± 0.6 nM
  Emax: 99%
[2]
  Ki: 17.6 ± 3.1 nM

## COC(=O)C1CC(N(C)C)C(=O)C2C1(C)CCC1C(=O)OC(c3ccoc3)CC12C (centres unmarked) [Compound 211a, 2-(N,N-dimethyl)-salvinorin]
[1]
  EC50: 240 ± 23 nM
  Emax: 110%
[2]
  Ki: 168 ± 10 nM

## COC(=O)C1CC(NC(C)=O)C(=O)C2C1(C)CCC1C(=O)OC(c3ccoc3)CC12C (centres unmarked) [Compound 212a, 2-(acetamide)-salvinorin]
[1]
  EC50: 188 ± 2 nM
[2]
  Ki: 149 ± 1 nM

## COC(=O)C1CC(NC(C)=O)C(=O)C2C1(C)CCC1C(=O)OC(c3ccoc3)CC12C (stereo not drawn) [Compound 212b, 2-epi-(acetamide)-salvinorin]
[1]; read-out: EC50
  EC50: 339 ± 33 nM
[2]; read-out: Ki
  Ki: 332 ± 41 nM

## COC(=O)C1CC(N(C)C(C)=O)C(=O)C2C1(C)CCC1C(=O)OC(c3ccoc3)CC12C (centres unmarked) [Compound 214a, 2-(N-methylacetamide)-salvinorin]
[1]
  EC50: 2.4 ± 0.7 nM
  Emax: 103%
[2]
  Ki: 3.2 ± 0.1 nM

## COC(=O)[C@@H]1C[C@H](OC(C)=O)C(=O)C2[C@@]1(C)CC[C@H]1C(=O)O[C@H](c3ccoc3)C[C@]21C (some centres unmarked) [salvinorin A]
Rats [3]
  effect in the forced swim test: depressive-like effects
Rats [4]
  ICSS thresholds: significantly elevated ICSS thresholds
Rats [5]
  effect on locomotor activity: without affecting locomotor activity
